A short description of this series: Stability of -PH2 compounds under storage and reaction conditions. Format: physicochemical. The conditions noted are these: variety of solvents, wide pH range and temperature range. From the text:
As a result of working with the NH2(CH2)3 PH2 intermediate, it was recognized that the intermediate was unexpectedly stable under a variety of storage and reaction conditions.
Furthermore, the reactivity of the —PH2 groups in these compounds toward molecules containing a wide spectrum of functional groups (including carboxylic acids, amines, thiols, and proteins) was remarkably low or non-measurable.

Data on one compound can be found in patent US6635235B1, “Bifunctional chelating agent for the design and development of site specific radiopharmaceuticals and biomolecule conjugation strategy” (The Curators of the University of Missouri, priority 1999, dated 2003).

For `NCCCP` [NH2(CH2)3 PH2, 3-Aminopropylphosphine], the “stability under storage and reaction conditions” value is “reasonably stable”.
